Test results: patent publication US11840686B2, “Modulation of prekallikrein (PKK) expression” (Ionis Pharmaceuticals, Inc., priority 2013, dated 2023)
Strand notation (5' to 3'): a small letter for the sugar, then the base; units joined by * are phosphorothioate-linked, units joined directly phosphodiester-linked; [ ] holds rarer units or linkages, { } end groups; capitals alone tell only the bases. e = 2'-O-(2-methoxyethyl) (MOE); [5mC] = 5-methylcytosine; d = 2'-deoxy (DNA)

Experiments:
human PKK mRNA [1] = assay: Dose-dependent antisense inhibition of human PKK in HepaRG cells, 0.19-5.00 uM (Example 5); assay type: cell-based
Summary of the method: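 PKK mRNA knockdown was measured by real-time PCR (primer probe set RTS3454) about 16 h after electroporating 20,000 HepaRG cells per well with oligonucleotide at four doses from 0.19 to 5.00 μM. Levels were adjusted to RIBOGREEN-measured total RNA, and IC50 values were calculated.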

human PKK mRNA [2] = assay: Antisense inhibition of human PKK mRNA in HepaRG cells, 5,000 nM (Example 2); assay type: cell-based
Summary of the method: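 Percent inhibition of PKK mRNA is relative to untreated control, with qRT-PCR (probe set RTS3454) values adjusted to total RNA by RIBOGREEN. Oligonucleotides, fully phosphorothioate 2′-MOE gapmers, were delivered at 5,000 nM by electroporation into 20,000 HepaRG cells/well for about 24 h.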

[3] = HepaRG cells, electroporation, approximately 16 hours, Table 39
[4] = HepaRG cells, electroporation, approximately 16 hours, Table 37
[5] = HepaRG cells, electroporation, approximately 16 hours, Table 38
[6] = Table 34, HepaRG, electroporation, ~16 h
[7] = Table 34, PKK mRNA, HepaRG, electroporation, ~16 h
[8] = HepaRG cells, electroporation, approximately 16 hours, Table 36
[9] = HepaRG cells, electroporation, approximately 16 hours, Table 35

547275 (antisense eT*eT*eG*eG*eA*dG*dG*dT*dG*dA*dG*dT*d[5mC]*dT*d[5mC]*eT*eT*eG*eT*e[5mC]) [compound 547275]
percent inhibition of PKK at 0.19 μM (human PKK mRNA [1]; [3]): 34%
percent inhibition of PKK at 0.56 μM (human PKK mRNA [1]; [3]): 66%
percent inhibition of PKK at 1.67 μM (human PKK mRNA [1]; [3]): 82%
percent inhibition of PKK at 5.00 μM (human PKK mRNA [1]; [3]): 95%
IC50 (human PKK mRNA [1]; 4 point dose response, HepaRG cells, Table 39): 300 nM
percent inhibition of PKK mRNA, 0.19 μM (human PKK mRNA [1]; HepaRG cells, 0.19 μM antisense oligonucleotide): 56%
percent inhibition of PKK mRNA, 0.56 μM (human PKK mRNA [1]; HepaRG cells, 0.56 μM antisense oligonucleotide): 16%
percent inhibition of PKK mRNA, 1.67 μM (human PKK mRNA [1]; HepaRG cells, 1.67 μM antisense oligonucleotide): 80%
percent inhibition of PKK mRNA, 5.00 μM (human PKK mRNA [1]; HepaRG cells, 5.00 μM antisense oligonucleotide): 86%
IC50 (human PKK mRNA [1]; HepaRG cells, 0.19-5.00 μM): 1200 nM
% inhibition (human PKK mRNA [2]; HepaRG cells, electroporation with 5,000 nM antisense oligonucleotide, approximately 24 hours, PKK mRNA by RT-PCR (RTS3454), relative to untreated control cells, Table 5 experiment): 87%

547731 (eG*eG*eA*eT*eT*dG*dG*dT*dG*dG*dT*dG*dG*dG*dA*eT*eT*eG*eG*eT; antisense) [compound 547731]
percent inhibition of PKK at 0.19 μM (human PKK mRNA [1]; [4]): 0%
percent inhibition of PKK at 0.56 μM (human PKK mRNA [1]; [4]): 0%
percent inhibition of PKK at 1.67 μM (human PKK mRNA [1]; [4]): 17%
percent inhibition of PKK at 5.00 μM (human PKK mRNA [1]; [4]): 56%
IC50 (human PKK mRNA [1]; 4 point dose response, HepaRG cells, Table 37): 5000 nM
% inhibition (human PKK mRNA [2]; HepaRG cells, 5,000 nM antisense oligonucleotide, 5-10-5 gapmers, Table 17): 49%

546358 (antisense e[5mC]*eT*eG*eA*eG*d[5mC]*dT*dT*dT*dT*d[5mC]*d[5mC]*dA*dT*d[5mC]*eA*e[5mC]*eT*eG*e[5mC]) [compound 546358]
percent inhibition of PKK at 0.19 μM (human PKK mRNA [1]; [5]): 0%
percent inhibition of PKK at 0.56 μM (human PKK mRNA [1]; [5]): 19%
percent inhibition of PKK at 1.67 μM (human PKK mRNA [1]; [5]): 71%
percent inhibition of PKK at 5.00 μM (human PKK mRNA [1]; [5]): 80%
IC50 (human PKK mRNA [1]; 4 point dose response, HepaRG cells, Table 38): 1300 nM
% inhibition (human PKK mRNA [2]; HepaRG cells, electroporation, 5,000 nM antisense oligonucleotide, approx. 24 hours, primer probe set RTS3454, relative to untreated control cells, Table 11): 83%

547456 (antisense eG*e[5mC]*eG*eA*eT*dA*dT*d[5mC]*dA*dT*dG*dA*dT*dT*d[5mC]*e[5mC]*e[5mC]*eT*eT*e[5mC]) [compound 547456]
percent inhibition of PKK at 0.19 μM (human PKK mRNA [1]; [6]): 12%
percent inhibition of PKK at 0.56 μM (human PKK mRNA [1]; [6]): 67%
percent inhibition of PKK at 1.67 μM (human PKK mRNA [1]; [6]): 66%
percent inhibition of PKK at 5.00 μM (human PKK mRNA [1]; [6]): 80%
IC50 (human PKK mRNA [1]; [7]): 1000 nM
% inhibition (human PKK mRNA [2]; Table 9 experiment, HepaRG cells, 20,000 cells per well, electroporation with 5,000 nM antisense oligonucleotide, approx. 24 hours, PKK mRNA by RT-PCR (RTS3454), relative to untreated control cells): 89%
% inhibition (human PKK mRNA [2]; Table 10 experiment, HepaRG cells, 20,000 cells per well, electroporation with 5,000 nM antisense oligonucleotide, approx. 24 hours, PKK mRNA by RT-PCR (RTS3454), relative to untreated control cells): 96%

547373 (eG*e[5mC]*eA*eG*eA*dT*dG*dG*dT*d[5mC]*d[5mC]*dG*dA*d[5mC]*dA*e[5mC]*eA*e[5mC]*eA*eA; antisense) [compound 547373]
percent inhibition of PKK at 0.19 μM (human PKK mRNA [1]; [8]): 20%
percent inhibition of PKK at 0.56 μM (human PKK mRNA [1]; [8]): 7%
percent inhibition of PKK at 1.67 μM (human PKK mRNA [1]; [8]): 49%
percent inhibition of PKK at 5.00 μM (human PKK mRNA [1]; [8]): 86%
IC50 (human PKK mRNA [1]; 4 point dose response, HepaRG cells, Table 36): 1100 nM
% inhibition (human PKK mRNA [2]; Table 7, HepaRG cells, electroporation with 5,000 nM antisense oligonucleotide, approx. 24 hours, PKK mRNA by RT-PCR (RTS3454), relative to untreated control cells): 90%

546852 (e[5mC]*eA*eG*eT*eA*dT*d[5mC]*dA*d[5mC]*dT*dG*dT*d[5mC]*d[5mC]*dT*eA*eT*eA*eT*e[5mC]; antisense) [compound 546852]
percent inhibition of PKK at 0.19 μM (human PKK mRNA [1]; [9]): 19%
percent inhibition of PKK at 0.56 μM (human PKK mRNA [1]; [9]): 40%
percent inhibition of PKK at 1.67 μM (human PKK mRNA [1]; [9]): 78%
percent inhibition of PKK at 5.00 μM (human PKK mRNA [1]; [9]): 85%
IC50 (human PKK mRNA [1]; 4 point dose response, HepaRG cells, Table 35): 800 nM
% inhibition (human PKK mRNA [2]; human PKK mRNA in HepaRG cells, 5-10-5 gapmers, Table 14): 94%

546825 (eG*eT*eA*eT*e[5mC]*dA*d[5mC]*dT*dG*dT*dA*d[5mC]*dT*dA*dG*eT*eT*eT*e[5mC]*e[5mC]; antisense) [compound 546825]
percent inhibition of PKK at 5.00 μM (human PKK mRNA [1]; HepaRG cells, electroporation, approximately 16 hours, Table 41): 99%
percent inhibition of PKK at 0.19 0μM (human PKK mRNA [1]; 0.19 0μM, HepaRG cells, electroporation, approximately 16 hours, Table 41): 38%
percent inhibition of PKK at 0.56 0μM (human PKK mRNA [1]; 0.56 0μM, HepaRG cells, electroporation, approximately 16 hours, Table 41): 82%
IC50 (human PKK mRNA [1]; 4 point dose response, HepaRG cells, Table 41): 200 nM
percent inhibition of PKK at 0.19 μM (human PKK mRNA [1]; [6]): 46%
percent inhibition of PKK at 0.56 μM (human PKK mRNA [1]; [6]): 73%
percent inhibition of PKK at 1.67 μM (human PKK mRNA [1]; [6]): 86%
percent inhibition of PKK at 5.00 μM (human PKK mRNA [1]; [6]): 88%
IC50 (human PKK mRNA [1]; [7]): 200 nM
% inhibition (human PKK mRNA [2]; Table 13, human PKK mRNA in HepaRG cells, 5-10-5 gapmers): 96%
